From EP1884251A1, “Use of fragrance compositions for the prevention of the development of indole based malodours from faecal and urine based soils” (Takasago International Corporation, priority 2006, dated 2008)

Assay: Change in fragrance compound concentration during the indole inhibition test (GC-MS at start and after 24 hours)
Type: physicochemical
Conditions: in fresh human urine, room temperature; for Decrease in Fragrance Compounds after 24 hours (%) >60%: category >60%; for Decrease in Fragrance Compounds after 24 hours (%) 0-30%: category 0-30%
Experimental: Advantageously, the appropriate fragrance compounds may be selected by using the following preferred indole inhibition test which comprises the following steps: • A) 0.02g of fragrance and 0.02g of Tergitol 15-s-12 was added to 7g of fresh human urine in a 20 ml Headspace vial sealed with a PTFE faced septum and well mixed for 10 minutes using a magnetic stirrer. For a blank to test the suitability of a batch of fresh human urine, 7g of human urine was used with 0.02g of demineralised water and 0.02g of Tergitol 15-s-12. If a control was required, to test the efficacy of product base for example, the control contained 7g of human urine to which was added 0.02g of fragrance, minus the active agents and 0.02g of Tergitol 15-s-12. • B) The vials are placed in an autosampler tray at room temperature. • C) At different times the headspace in the vials is sampled for 5 minutes at 35°C by an SPME fibre (PDMS fibre ex Supelco) after 10 minutes at 35°C (incubation time). • D) The SPME fibre is desorbed 1 minute at 265°C from a CTC Combipal autosampler and injected in splitless mode onto an Agilent GC-MS 5973N with a HP-INNOWAX column (30m x 0.25 x 0.25). (Oven conditions : 50°C during 2min - to 250°C at 10°C/min - 250°C during 5 minutes). • E) Under the above GC-MS conditions, indole has a retention time of 19.14 minutes, and can be recognised by its characteristic ions (m/z 117, m/z 89 and m/z 90). • F) In the range of values determined in this work, the area of the indole peak (117) is linearly related to the actual concentration in the vial, and was used without further correction to establish the concentration of indole in "Active" and "Blank" and if present any "Control" fragrances. • G) The material is deemed to be active if the indole concentration in the test sample is below 0.01ppm (wt/wt) after 24 hours incubation at room temperature and the indole in the blank samples is between 0.25ppm (wt/wt) and 1.25ppm (wt/wt) indole after 24 hours storage at room temperature. • H) The change in the active ingredient concentration is determined by comparing measurements at the start of the experiment and after 24 hours using appropriate characteristic ions.
This can be determined by measuring the fragrance concentration in the sample containing the test cocktail at the start and end of the indole inhibition test as described in step I of the test. If the difference between the measurements is less than 60% preferably less than 30% then the material is considered as not to have changed sufficiently to alter the fragrance note and to be particularly preferred.
A sample of fresh human urine is divided into equal portions and a fragrance containing one or more of the effective materials was added as described in the Indole Inhibition Test. […] The samples were stored and after 24 hours the indole content and fragrance active content is measured by gas chromatography with mass spectrometric (GCMS) detection. Those formulations containing active ingredients prevented the formation of indole while both the unfragranced and the alcohol containing control samples had much greater quantities of indole present. Also for the active compounds a GCMS measurement indicated the extent to which the compound was itself consumed as part of the process. In table 2 the decrease in fragrance components has been classified into 3 categories and the letter Y indicates the appropriate category for the compounds which have been measured. The absence of a letter Y in any category means that the decrease has not been measured for that compound. Table 2. Examples of effective materials

CCCCCCCCCCC=O [Aldehyde C11]
Decrease in Fragrance Compounds after 24 hours (%) >60%: Y (Y= Yes)

O=Cc1ccccc1 [Benzaldehyde]
Decrease in Fragrance Compounds after 24 hours (%) 0-30%: Y (Y= Yes)

O=C/C=C/c1ccccc1 [Cinnamic aldehyde]
Decrease in Fragrance Compounds after 24 hours (%) 0-30%: Y (Y= Yes)

CC(C)=CCCC(C)=CC=O [Citral]
Decrease in Fragrance Compounds after 24 hours (%) 0-30%: Y (Y= Yes)

C=C(C)C1CC=C(C=O)CC1 (stereo not shown) [Perilla aldehyde]
Decrease in Fragrance Compounds after 24 hours (%) 0-30%: Y (Y= Yes)

CCC/C=C/C=O [Trans 2 hexenal]
Decrease in Fragrance Compounds after 24 hours (%) 0-60% (category 0-60%): Y (Y= Yes)

CCc1occc(=O)c1O [Veltol Plus]
Decrease in Fragrance Compounds after 24 hours (%) >60%: Y (Y= Yes)
